Reference: ChEMBL document CHEMBL4002576, “Tetrahydropyranodiquinolin-8-amines as new, non hepatotoxic, antioxidant, and acetylcholinesterase inhibitors for Alzheimer's disease therapy” (Eur J Med Chem, 2017)
pIC50, pKi: −log10 of the molar value. The source made the active and inactive calls. The rule behind the calls is not given here.

Tests used:
[1] = target: Cholinesterase (Equus caballus, UniProt P81908); test: Inhibition of horse serum BuChE using butyrylthiocholine as substrate pretreated for 10 mins followed by substrate addition measured after 15 mins by spectrophotometry based Ellman method; conditions: for pIC50: read-out: IC50
Cholinesterase, sequence (P81908 whole entry): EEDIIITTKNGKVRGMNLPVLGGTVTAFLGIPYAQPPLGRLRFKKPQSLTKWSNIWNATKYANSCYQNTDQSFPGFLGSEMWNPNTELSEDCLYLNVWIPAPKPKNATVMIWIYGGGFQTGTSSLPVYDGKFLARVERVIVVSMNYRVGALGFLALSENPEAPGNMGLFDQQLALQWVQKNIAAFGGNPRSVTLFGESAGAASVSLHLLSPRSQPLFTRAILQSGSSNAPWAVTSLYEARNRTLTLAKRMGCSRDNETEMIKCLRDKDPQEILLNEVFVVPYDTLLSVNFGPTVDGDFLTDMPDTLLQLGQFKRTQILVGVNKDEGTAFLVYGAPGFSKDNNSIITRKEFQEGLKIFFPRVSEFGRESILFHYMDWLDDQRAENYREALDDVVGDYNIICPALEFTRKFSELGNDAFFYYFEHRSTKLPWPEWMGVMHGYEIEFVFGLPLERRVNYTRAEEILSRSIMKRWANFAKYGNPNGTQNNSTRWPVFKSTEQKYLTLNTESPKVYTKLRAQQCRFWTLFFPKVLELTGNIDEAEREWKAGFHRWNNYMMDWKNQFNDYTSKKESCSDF

[2] = target: Acetylcholinesterase (Electrophorus electricus, UniProt O42275)
Acetylcholinesterase (Electrophorus electricus, UniProt O42275), sequence (O42275 whole entry): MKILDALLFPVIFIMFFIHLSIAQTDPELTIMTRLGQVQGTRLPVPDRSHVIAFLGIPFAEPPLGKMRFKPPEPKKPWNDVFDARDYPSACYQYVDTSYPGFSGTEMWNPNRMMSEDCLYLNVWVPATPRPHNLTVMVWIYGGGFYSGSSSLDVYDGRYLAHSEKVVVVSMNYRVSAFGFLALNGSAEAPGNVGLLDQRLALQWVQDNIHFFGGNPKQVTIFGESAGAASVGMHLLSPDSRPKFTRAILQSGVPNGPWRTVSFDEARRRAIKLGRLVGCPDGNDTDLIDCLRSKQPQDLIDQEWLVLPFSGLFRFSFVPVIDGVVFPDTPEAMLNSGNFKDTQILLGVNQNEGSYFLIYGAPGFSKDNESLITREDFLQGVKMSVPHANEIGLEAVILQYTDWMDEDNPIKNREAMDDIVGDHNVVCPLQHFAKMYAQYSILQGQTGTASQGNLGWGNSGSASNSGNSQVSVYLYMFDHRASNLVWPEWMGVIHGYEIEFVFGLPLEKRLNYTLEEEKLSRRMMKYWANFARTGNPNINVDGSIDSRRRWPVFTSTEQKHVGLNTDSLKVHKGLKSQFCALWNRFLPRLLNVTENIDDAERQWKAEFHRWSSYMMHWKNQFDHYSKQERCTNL
Description: Inhibition of Electrophorus electricus AChE using acetylthiocholine iodide as substrate pretreated for 10 mins followed by substrate addition measured after 15 mins by spectrophotometry based Ellman method

[3] = target: T1, Acetylcholinesterase (Homo sapiens, UniProt P22303); test: Inhibition of recombinant human AChE expressed in HEK293 cells using acetylthiocholine iodide as substrate pretreated for 5 mins followed by substrate addition measured after 5 mins by spectrophotometry based Ellman method; conditions: for pIC50: read-out: IC50; for IC50: hek293
T1 sequence (P22303 whole entry): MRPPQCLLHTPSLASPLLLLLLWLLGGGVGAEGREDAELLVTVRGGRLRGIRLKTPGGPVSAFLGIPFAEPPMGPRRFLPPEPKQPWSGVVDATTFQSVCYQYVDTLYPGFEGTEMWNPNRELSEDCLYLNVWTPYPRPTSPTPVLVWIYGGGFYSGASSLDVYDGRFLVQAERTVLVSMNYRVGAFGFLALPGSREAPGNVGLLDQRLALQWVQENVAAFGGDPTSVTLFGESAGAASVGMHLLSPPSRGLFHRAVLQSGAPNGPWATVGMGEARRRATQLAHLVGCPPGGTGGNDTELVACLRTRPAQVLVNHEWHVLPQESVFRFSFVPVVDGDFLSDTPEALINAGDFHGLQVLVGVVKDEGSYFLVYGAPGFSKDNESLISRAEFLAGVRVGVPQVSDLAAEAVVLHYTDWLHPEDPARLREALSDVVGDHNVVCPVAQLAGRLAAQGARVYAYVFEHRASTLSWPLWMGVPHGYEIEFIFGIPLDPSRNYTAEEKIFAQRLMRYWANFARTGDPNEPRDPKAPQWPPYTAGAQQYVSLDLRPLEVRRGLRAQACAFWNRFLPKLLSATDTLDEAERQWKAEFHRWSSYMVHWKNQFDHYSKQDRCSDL

[4] = target: T1, Acetylcholinesterase; test: Non-competitive inhibition of recombinant human AChE expressed in HEK293 cells using varying levels of acetylthiocholine iodide as substrate pretreated for 5 mins followed by substrate addition measured after 5 mins by Lineweaver-burk plot analysis
[5] = Metal chelating activity assessed as compound-Cu2+ complex formation at 10 uM in presence of CuSO4 after 20 hrs by UV-visible spectrophotometric analysis; format: functional
[6] = Metal chelating activity assessed as compound-Cu2+ complex formation at 10 uM in presence of CuSO4 after 60 mins by UV-visible spectrophotometric analysis; format: functional
[7] = Metal chelating activity assessed as compound-Fe2+ complex formation at 10 uM in presence of FeSO4 after 60 mins by UV-visible spectrophotometric analysis; format: functional
[8] = Metal chelating activity assessed as compound-Fe2+ complex formation at 10 uM in presence of FeSO4 after 20 hrs by UV-visible spectrophotometric analysis; format: functional
[9] = physchem; conditions: PAMPA, pH 7.4
Description: Permeability of the compound at 100 uM at pH 7.4 measured after 6 hrs by PAMPA

[10] = in vitro; conditions: human, primary hepatocytes
Description: Cytotoxicity against human primary hepatocytes assessed as cell viability at 0.1 uM measured after 2 hrs by trypan blue assay relative to control

[11] = in vitro; conditions: human, primary hepatocytes; remark: listed apart in the source
Description: Cytotoxicity against human primary hepatocytes assessed as cell viability at 1 uM measured after 2 hrs by trypan blue assay relative to control

[12] = in vitro; conditions: human, primary hepatocytes; remark: listed apart in the source
Description: Cytotoxicity against human primary hepatocytes assessed as cell viability at 3 uM measured after 2 hrs by trypan blue assay relative to control

[13] = in vitro; conditions: human, primary hepatocytes; remark: listed apart in the source
Description: Cytotoxicity against human primary hepatocytes assessed as cell viability at 10 uM measured after 2 hrs by trypan blue assay relative to control

[14] = in vitro; conditions: human, primary hepatocytes; remark: listed apart in the source
Description: Cytotoxicity against human primary hepatocytes assessed as cell viability at 30 uM measured after 2 hrs by trypan blue assay relative to control

[15] = in vitro; conditions: human, primary hepatocytes; remark: listed apart in the source
Description: Cytotoxicity against human primary hepatocytes assessed as cell viability at 100 uM measured after 2 hrs by trypan blue assay relative to control

Row | SMILES | pIC50 [1] | pIC50 [2] | pIC50 [3] | IC50 [1] | further results
1 | Nc1c2c(nc3c1C(c1ccccc1Br)c1ccc4cccnc4c1O3)CCCC2 (stereo not drawn) | 6.68 | 6.85 |  |  | 
2 | Nc1c2c(nc3c1C(c1ccccc1F)c1ccc4cccnc4c1O3)CCCC2 (stereo not drawn) | 6.20 | 6.96 |  |  | 
3 | Nc1c2c(nc3c1C(c1cccc(F)c1)c1ccc4cccnc4c1O3)CCCC2 (stereo not drawn) |  | 7.05 | 5.66 | Not Active | 
4 | Nc1c2c(nc3c1C(c1ccccc1)c1ccc4cccnc4c1O3)CCCC2 (stereo not drawn) | 5.95 | 7.22 | 5.76 |  | 
5 | Cc1ccc(C2c3ccc4cccnc4c3Oc3nc4c(c(N)c32)CCCC4)cc1 (stereo not drawn) | 6.28 | 7.40 | 5.55 |  | 
6 | COc1ccccc1C1c2ccc3cccnc3c2Oc2nc3c(c(N)c21)CCCC3 (stereo not drawn) | 5.82 | 7.10 |  |  | 
7 | Nc1c2c(nc3c1C(c1c(Cl)cccc1Cl)c1ccc4cccnc4c1O3)CCCC2 (stereo not drawn) |  | 7.00 |  | Not Active | 
8 | Nc1c2c(nc3c1C(c1cccnc1Br)c1ccc4cccnc4c1O3)CCCC2 (stereo not drawn) | 5.54 | 6.72 |  |  | IC50 [3]: Not Active
9 | COc1ccc(C2c3ccc4cccnc4c3Oc3nc4c(c(N)c32)CCCC4)cc1 (stereo not drawn) | 5.89 | 7.40 | 5.82 |  | 
10 | Nc1c2c(nc3c1C(c1ccc([N+](=O)[O-])cc1)c1ccc4cccnc4c1O3)CCCC2 (stereo not drawn) |  | 6.62 |  | Not Active | 
11 | Nc1c2c(nc3c1C(c1ccncc1)c1ccc4cccnc4c1O3)CCCC2 (stereo not drawn) |  | 6.33 |  | Not Active | IC50 [3]: Not Active
12 | COc1cccc(C2c3ccc4cccnc4c3Oc3nc4c(c(N)c32)CCCC4)c1 (stereo not drawn) | 5.89 | 7.40 | 6.12 |  | pKi [4]: 6.06; Activity [5]: inactive; Activity [6]: inactive; Activity [7]: inactive; Activity [8]: inactive; Papp at 6 h, 100 µM [9]: 5.41 ×10⁻⁶ cm/s; viability at 2 h, 0.1 µM [10]: 89%; viability at 2 h, 1 µM [11]: 84%; viability at 2 h, 3 µM [12]: 83%; viability at 2 h, 10 µM [13]: 89%; viability at 2 h, 30 µM [14]: 99%; viability at 2 h, 100 µM [15]: 89%
